Results published in ChEMBL document CHEMBL1140827, “From rigid cyclic templates to conformationally stabilized acyclic scaffolds. Part II: Acyclic replacements for the (3S)-3-benzylpiperidine in a series of potent CCR3 antagonists” (Bioorg Med Chem Lett, 2008).

Assays:
[1] = biological target: T1, C-C chemokine receptor type 3 (Homo sapiens, UniProt P51677); assay: Displacement of [125I] eotaxin from human CCR3 receptor in CHO cells; assay type: cell-based
T1 sequence (P51677 whole entry): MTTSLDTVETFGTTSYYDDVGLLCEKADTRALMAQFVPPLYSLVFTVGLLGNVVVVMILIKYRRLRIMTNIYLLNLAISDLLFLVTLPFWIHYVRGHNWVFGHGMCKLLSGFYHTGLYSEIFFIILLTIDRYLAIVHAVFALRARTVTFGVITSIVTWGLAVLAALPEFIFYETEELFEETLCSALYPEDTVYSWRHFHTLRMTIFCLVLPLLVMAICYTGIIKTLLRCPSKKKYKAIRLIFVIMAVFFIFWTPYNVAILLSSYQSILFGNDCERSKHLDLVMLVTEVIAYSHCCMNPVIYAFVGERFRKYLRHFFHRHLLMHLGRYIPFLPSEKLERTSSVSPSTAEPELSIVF

[2] = biological target: T2, C-C chemokine receptor type 3 (Homo sapiens) (UniProt P51677); assay: Antagonist activity at human CCR3 receptor assessed as inhibition of chemotaxis in eosinophil at 3 nM; assay type: functional; parameters: scale not given: the % may be the effect or the level left
T2 sequence (whole entry): T1 sequence (P51677 whole entry)

[3] = biological target: C-C chemokine receptor type 3 (Homo sapiens, UniProt P51677); assay: Displacement of [125I] eotaxin from human CCR3/CCR2 chimeric receptor in CHO cells; assay type: cell-based
[4] = biological target: T2, C-C chemokine receptor type 3 (Homo sapiens); assay: Antagonist activity at human CCR3 receptor assessed as inhibition of chemotaxis in eosinophil at 30 nM; assay type: functional; parameters: scale not given: the % may be the effect or the level left
[5] = biological target: T2, C-C chemokine receptor type 3 (Homo sapiens); assay: Antagonist activity at human CCR3 receptor assessed as inhibition of chemotaxis in eosinophil at 0.03 nM; assay type: functional; parameters: scale not given: the % may be the effect or the level left
[6] = biological target: T2, C-C chemokine receptor type 3 (Homo sapiens); assay: Antagonist activity at human CCR3 receptor assessed as inhibition of chemotaxis in eosinophil at 0.3 nM; assay type: functional; parameters: scale not given: the % may be the effect or the level left

IC50 [1] [nM] | SMILES | also measured
19 | CCN(C[C@H](O)[C@@H](C)NC(=O)Nc1cccc(-c2nnnn2C)c1)[C@@H](C)[C@@H](O)Cc1ccc(F)cc1 | 
0.5 | CCc1cc(NC(=O)N[C@H](C)[C@@H](O)CN(C)[C@@H](C)[C@@H](O)c2ccccc2)cc(-c2nnnn2C)c1 | 
0.4 | C[C@@H](NC(=O)Nc1cccc(-c2nnnn2C)c1)[C@@H](O)CN(CCCc1ccc(F)cc1)CC1CC1 | Activity [2]: 44%
0.3 | C[C@@H](NC(=O)Nc1cccc(-c2nnnn2C)c1)[C@@H](O)CN1CCC[C@@H](Cc2ccc(F)cc2)C1 | IC50 [3]: 0.4 nM
3.2 | CCc1cc(NC(=O)N[C@H](C)[C@@H](O)CN(CCCc2ccc(F)cc2)C2CCCCC2)cc(-c2nnnn2C)c1 | Activity [4]: 58%; Activity [2]: 0%
211 | CCc1cc(NC(=O)N[C@H](C)[C@@H](O)CN(CCCc2ccc(F)cc2)CC23CC4CC(CC(C4)C2)C3)cc(-c2nnnn2C)c1 | 
0.5 | CCCN(CCCc1ccc(F)cc1)C[C@H](O)[C@@H](C)NC(=O)Nc1cc(CC)cc(-c2nnnn2C)c1 | Activity [5]: 42%; Activity [6]: 62%
0.3 | CCc1cc(NC(=O)N[C@H](C)[C@@H](O)CNCCCc2ccc(F)cc2)cc(-c2nnnn2C)c1 | Activity [4]: 55%; Activity [2]: 42%
1.8 | CCc1cc(NC(=O)N[C@H](C)[C@@H](O)CN2CCC[C@@H](Cc3ccc(F)cc3)C2)cc(-c2nnnn2C)c1 | 
60 | Cn1nnnc1-c1cccc(NC(=O)N[C@@H]2CCCC[C@H]2CN(CCCc2ccc(F)cc2)CC(F)(F)F)c1 | 
0.2 | CCN(CCCc1ccc(F)cc1)C[C@H](O)[C@@H](C)NC(=O)Nc1cccc(-c2nnnn2C)c1 | Activity [6]: 34%
3.7 | Cn1nnnc1-c1cccc(NC(=O)N[C@@H]2CCCC[C@H]2CNCCCc2ccc(F)cc2)c1 | 
0.6 | CCc1cc(NC(=O)N[C@H](C)[C@@H](O)CN(CCCc2ccc(F)cc2)CC2CC2)cc(-c2nnnn2C)c1 | 
0.3 | CCc1cc(NC(=O)N[C@H](C)[C@@H](O)CN(C)CCCc2ccc(F)cc2)cc(-c2nnnn2C)c1 | 
6 | CCc1cc(NC(=O)N[C@H](C)[C@@H](O)CN(CCCc2ccc(F)cc2)C(C)=O)cc(-c2nnnn2C)c1 | 
9 | CCc1cc(NC(=O)N[C@H](C)[C@@H](O)CN(CCCc2ccc(F)cc2)CC(F)(F)F)cc(-c2nnnn2C)c1 | 
0.4 | C[C@@H](NC(=O)Nc1cccc(-c2nnnn2C)c1)[C@@H](O)CN(C)CCCc1ccc(F)cc1 | Activity [4]: 0%

Continued, molecule first:

SMILES | IC50 [1] [nM] | also measured
C[C@H]([C@H](O)c1ccccc1)N(C)C[C@H](O)[C@@H](C)NC(=O)Nc1cccc(-c2nnnn2C)c1 | 577 | 
CCc1cc(NC(=O)N[C@H](C)[C@@H](O)CN(CCCc2ccc(F)cc2)S(C)(=O)=O)cc(-c2nnnn2C)c1 | 21.6 | 
C[C@@H](NC(=O)Nc1cccc(-c2nnnn2C)c1)[C@@H](O)CN(CCCc1ccc(F)cc1)C1CC1 | 0.4 | 
CCc1cc(NC(=O)N[C@H](C)[C@@H](O)CN(CC)[C@@H](C)[C@H](O)Cc2ccc(F)cc2)cc(-c2nnnn2C)c1 | 3.4 | 
CCN(C[C@H](O)[C@@H](C)NC(=O)Nc1cccc(-c2nnnn2C)c1)[C@@H](C)[C@H](O)Cc1ccc(F)cc1 | 88 | 
C[C@H]([C@@H](O)c1ccccc1)N(C)C[C@H](O)[C@@H](C)NC(=O)Nc1cccc(-c2nnnn2C)c1 | 238 | 
CN(CCCc1ccc(F)cc1)C[C@@H]1CCCC[C@H]1NC(=O)Nc1cccc(-c2nnnn2C)c1 | 0.6 | 
C[C@@H](NC(=O)Nc1cccc(-c2nnnn2C)c1)[C@@H](O)CN(C)[C@@H](C)[C@H](O)c1ccccc1 | 5.7 | 
CCc1cc(NC(=O)N[C@H](C)[C@@H](O)CN(CC)CCCc2ccc(F)cc2)cc(-c2nnnn2C)c1 (stereo in doubt; 5b) | 0.4 | 
C[C@@H](NC(=O)Nc1cccc(-c2nnnn2C)c1)[C@@H](O)CN(CCCc1ccc(F)cc1)CC(F)(F)F | 59 | 
C[C@@H](NC(=O)Nc1cccc(-c2nnnn2C)c1)[C@@H](O)CN(CCCc1ccc(F)cc1)C1CCCCC1 | 2.5 | 
CCCN(CCCc1ccc(F)cc1)C[C@H](O)[C@@H](C)NC(=O)Nc1cccc(-c2nnnn2C)c1 | 0.2 | Activity [2]: 43%
CCc1cc(NC(=O)N[C@H](C)[C@@H](O)CN(CCCc2ccc(F)cc2)Cc2ccccc2)cc(-c2nnnn2C)c1 | 2.5 | Activity [5]: 9%; Activity [6]: 61%
CCc1cc(NC(=O)N[C@H](C)[C@@H](O)CN(CC)[C@@H](C)[C@@H](O)Cc2ccc(F)cc2)cc(-c2nnnn2C)c1 | 1.2 | 
C[C@@H](NC(=O)Nc1cccc(-c2nnnn2C)c1)[C@@H](O)CN(C)[C@@H](C)[C@@H](O)c1ccccc1 | 0.4 | Activity [4]: 67%
CCc1cc(NC(=O)N[C@H](C)[C@@H](O)CN(CC)[C@@H](C)CCc2ccc(F)cc2)cc(-c2nnnn2C)c1 | 0.2 | 
CCc1cc(NC(=O)N[C@H](C)[C@@H](O)CN(CCCc2ccc(F)cc2)C2CC2)cc(-c2nnnn2C)c1 | 0.6 | 
CCN(C[C@H](O)[C@@H](C)NC(=O)Nc1cccc(-c2nnnn2C)c1)[C@@H](C)CCc1ccc(F)cc1 | 2.5 | 
CCc1cc(NC(=O)N[C@H](C)[C@@H](O)CN(CC)CCCc2ccc(F)cc2)cc(-c2nnnn2C)c1 (stereo in doubt; 5Et) |  | IC50 ([1]; cho): 0.4 nM
C[C@@H](NC(=O)Nc1cccc(-c2nnnn2C)c1)[C@@H](O)CN(CCCc1ccc(F)cc1)CC12CC3CC(CC(C3)C1)C2 | 421 | 
